# Assays:
# [1] = test system: implanted liver organoids; test: Effect of CCl4 treatment on liver organoids implanted on mouse liver; format: in vivo, nude mice; conditions: 4 μl/g CCl4 in olive oil (1:1), bi-weekly subcutaneous injections
# Protocol: FIG. 3. The effect of CCl4 treatment on implanted liver organoids. Liver organoids were inserted on top of mouse livers via a small hole carved with a 8 mm biopsy punch and immobilized with fibrin glue. Some of the mice were treated with 4 μl/g CCl4, via bi-weekly subcutaneous injections. Liver organoids were harvested after 1 and 3 weeks and immune-stained for human hepatocytes (Hep-1) and proliferating cells (PCNA). Implant margins are drawn.
# Yet, the in vitro culture conditions lack multiple factors present in vivo including components of the blood and immune cells, to mention a few. Accordingly, we implanted organoids on top the liver of nude mice by creating a small hole with a biopsy punch and immobilized them with fibrin glue. […] In parallel, we treated some on the implanted mice with […] of CCl4 in olive oil (1:1), via bi-weekly subcutaneous injections. […] Neovascularization was also observed within the organoids, probably due to CCl4-induced injury of the host liver.
# EZH2 [2] = target: T1, EZH2 (Homo sapiens, UniProt Q15910); test: Western blot and densitometry of EZH2 activity marker H3K27me3 in fibroblasts treated with GSK-126; format: cell-based
# T1 construct: endogenous in cells; host or cells: myofibroblasts transitioned from mesenchymal stem cells (called tumor-associated fibroblasts, TAF)
# T1 sequence (Q15910 whole entry, species assumed): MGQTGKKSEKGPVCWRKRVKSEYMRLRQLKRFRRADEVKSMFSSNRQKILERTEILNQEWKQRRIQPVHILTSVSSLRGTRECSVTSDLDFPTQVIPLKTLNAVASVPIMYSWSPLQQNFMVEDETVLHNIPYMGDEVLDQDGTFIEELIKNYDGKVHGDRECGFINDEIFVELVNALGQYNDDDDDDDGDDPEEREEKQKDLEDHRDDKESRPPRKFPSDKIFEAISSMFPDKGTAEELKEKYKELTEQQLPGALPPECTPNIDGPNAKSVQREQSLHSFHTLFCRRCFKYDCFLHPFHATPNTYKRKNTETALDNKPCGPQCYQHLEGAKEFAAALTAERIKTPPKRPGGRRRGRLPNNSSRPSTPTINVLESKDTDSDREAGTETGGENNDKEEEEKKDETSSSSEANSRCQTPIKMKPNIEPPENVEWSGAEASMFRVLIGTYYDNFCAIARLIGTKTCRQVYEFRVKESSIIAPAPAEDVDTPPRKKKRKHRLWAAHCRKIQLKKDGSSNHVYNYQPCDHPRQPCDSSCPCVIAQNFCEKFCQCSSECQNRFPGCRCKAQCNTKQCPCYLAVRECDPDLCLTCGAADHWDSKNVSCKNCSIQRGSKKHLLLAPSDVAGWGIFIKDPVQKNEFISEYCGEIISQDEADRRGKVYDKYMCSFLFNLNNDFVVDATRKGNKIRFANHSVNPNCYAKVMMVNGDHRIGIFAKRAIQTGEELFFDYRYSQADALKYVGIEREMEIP
# T1 sequence (Q15022 whole entry partner, species assumed): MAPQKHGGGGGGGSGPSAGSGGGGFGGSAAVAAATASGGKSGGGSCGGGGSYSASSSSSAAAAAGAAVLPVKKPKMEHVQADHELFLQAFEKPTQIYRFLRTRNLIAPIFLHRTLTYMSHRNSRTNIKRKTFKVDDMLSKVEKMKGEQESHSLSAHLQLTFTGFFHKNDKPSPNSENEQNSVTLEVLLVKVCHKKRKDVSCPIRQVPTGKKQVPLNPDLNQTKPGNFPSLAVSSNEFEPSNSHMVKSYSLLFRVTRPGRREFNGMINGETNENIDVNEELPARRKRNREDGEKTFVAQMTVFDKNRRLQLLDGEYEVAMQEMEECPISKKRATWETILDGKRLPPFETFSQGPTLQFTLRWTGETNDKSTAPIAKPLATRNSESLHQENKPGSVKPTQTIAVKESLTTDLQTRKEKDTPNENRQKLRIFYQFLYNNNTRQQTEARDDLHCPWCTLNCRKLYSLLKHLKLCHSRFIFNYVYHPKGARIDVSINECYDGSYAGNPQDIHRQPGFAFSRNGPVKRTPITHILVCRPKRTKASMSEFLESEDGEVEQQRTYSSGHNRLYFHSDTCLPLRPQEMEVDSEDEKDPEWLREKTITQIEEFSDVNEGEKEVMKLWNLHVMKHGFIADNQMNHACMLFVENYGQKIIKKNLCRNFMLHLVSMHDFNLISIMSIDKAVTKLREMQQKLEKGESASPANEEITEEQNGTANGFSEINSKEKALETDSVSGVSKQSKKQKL
# T1 sequence (O75530 whole entry partner, species assumed): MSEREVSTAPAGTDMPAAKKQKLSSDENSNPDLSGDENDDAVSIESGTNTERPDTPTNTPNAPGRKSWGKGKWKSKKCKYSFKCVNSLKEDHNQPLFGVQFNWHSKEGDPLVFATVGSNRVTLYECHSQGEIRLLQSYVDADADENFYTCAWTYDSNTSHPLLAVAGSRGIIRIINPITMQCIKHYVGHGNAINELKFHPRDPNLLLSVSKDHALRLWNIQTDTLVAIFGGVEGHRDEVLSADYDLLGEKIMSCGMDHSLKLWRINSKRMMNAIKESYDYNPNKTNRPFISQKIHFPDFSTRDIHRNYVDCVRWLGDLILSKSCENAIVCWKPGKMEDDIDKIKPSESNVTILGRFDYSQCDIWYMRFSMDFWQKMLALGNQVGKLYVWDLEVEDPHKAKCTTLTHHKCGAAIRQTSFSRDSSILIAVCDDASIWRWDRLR
# Protocol: (§1) FIG. 4A-FIG. 4F. Analysis of LX-2 cells. FIG. 4A: Western blot comparison of αSMA and PRC2 components/markers in Myofibroblasts and LX-2. FIG. 4B: Densitometry analysis of Myofibroblast vs. LX-2 western blot. FIG. 4C: Western blot analysis of αSMA and PRC2 components/markers in LX-2 cells treated with TGFβ for 24 or 48 hours. FIG. 4D: Densitometry analysis of TGFβ treated LX-2. FIG. 4E: Western blot analysis of EZH2 marker (H3K27me3) for EZH2 activity in myofibroblasts transitioned from Mesenchymal Stem Cells treated with GSK-126, a chemical inhibitor of EZH2. DMSO is a vehicle control.
# EZH2 [3] = conditions: lymphoma and non-small cell lung cancer cell lines in vitro; cited from earlier work
# [4] = test system: cancer cell lines that have EZH2 activating mutations; conditions: cited from earlier work
# [5] = test system: cells that do not carry activating EZH2 mutations; conditions: high doses; cited from earlier work
# LX-2 = test: Western blot of EZH2 activity and PRC2 components in LX-2 cells incubated with TGFβ; format: cell-based; conditions: LX-2 cells treated with TGFβ for 24 or 48 hours; FIG. 4C, 4D
# Protocol: as §1
# In the fibrotic liver tissue, about 90% of myofibroblasts are derived from HSC (Liedtke, C., et al., Experimental liver fibrosis research: update on animal models, legal issues and translational aspects. Fibrogenesis Tissue Repair, 2013. 6(1): p. 19), and EZH2 may be an epigenetic regulator of HSC activation and transition into myofibroblast. It was shown that, like myofibroblasts (MF-10), the HSC cell line (LX-2) expresses EZH2 and the PRC components in vitro (FIG. 4A, FIG. 4B).
molecule,measurement,setting,value
"ClC(Cl)(Cl)Cl [CCl4, carbon tetrachloride]",Organoid histology after 1 week of CCl4 treatment,[1]; harvested after 1 week,lack of nucleated human hepatocytes within the organoids and early signs of fibrosis
same,Organoid histology after 3 weeks of CCl4 treatment,[1]; harvested after 3 weeks,higher number of proliferating stromal and endothelial cells
CC[C@H](C)n1cc(C)c2c(C(=O)NCc3c(C)cc(C)[nH]c3=O)cc(-c3ccc(N4CCNCC4)nc3)cc21 [GSK-126],Densitometry of EZH2 marker (H3K27me3): activity of EZH2,"EZH2 [2]; myofibroblasts transitioned from Mesenchymal Stem Cells, treated with GSK-126, FIG. 4F",effective decrease in activity of EZH2
same,H2K27me3 after incubation with GSK-126,"EZH2 [2]; tumor-associated fibroblasts (TAF), Western blot, FIG. 4E, 4F",complete loss of H2K27me3
same,Prevention of H3K27me3,EZH2 [3],effective at preventing H3K27me3
same,Cell death,[4],resulted in cell death
same,Lethality,[5],"non-lethal, even at high doses"
TGFβ,"EZH2 activity and PRC machinery (Suz12, H3K27me3)",LX-2,induced EZH2 activity and PRC machinery

# — patent US20200377863A1, “MODEL SYSTEM OF LIVER FIBROSIS AND METHOD OF MAKING AND USING THE SAME” (Wake Forest University Health Sciences, priority 2017, published 2020)
